# Assay results reported in the supplement of paper PMC11551840.
# Columns and labels:
# Experiment in all cases: IC50 (cell viability, 72 h) (ln(µM))
# [1] = system: BICR10
# Experimental: (§1)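 Discovery screen of OSCC cell lines in 1,536-well plates. Cells were treated 24 h after seeding with 7 concentrations spanning a 1,000-fold half-log range for 72 h, and viability was read by CellTiter-Glo 2.0 and normalised to DMSO (1) and medium-only (0) controls. IC50 comes from a two-parameter logistic nonlinear mixed-effects fit and is reported as natural log of IC50 in µM.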
# [2] = system: ORL-150
# Experimental: as §1
# [3] = system: ORL-215
# Experimental: as §1
# [4] = system: ORL-195
# Experimental: as §1
# [5] = system: ORL-214
# Experimental: as §1
# [6] = system: ORL-207
# Experimental: as §1
# [7] = system: ORL-156
# Experimental: as §1
# [8] = system: PE-CA-PJ15
# Experimental: as §1
# [9] = system: SCC-9
# Experimental: as §1
# [10] = system: ORL-48
# Experimental: as §1
# [11] = system: SAS
# Experimental: as §1
# [12] = system: ORL-166
# Experimental: as §1
# [13] = system: ORL-188
# Experimental: as §1
# [14] = system: ORL-136
# Experimental: as §1
# [15] = system: ORL-115
# Experimental: as §1
# [16] = system: HO-1-u-1
# Experimental: as §1
# [17] = system: HSC-2
# Experimental: as §1
# [18] = system: ORL-153
# Experimental: as §1
# [19] = system: HSC-4
# Experimental: as §1
# [20] = system: ORL-204
# Experimental: as §1
# [21] = system: ORL-174
# Experimental: as §1
SMILES,IC50 (ln) [1],IC50 (ln) [2],IC50 (ln) [3],IC50 (ln) [4],IC50 (ln) [5],IC50 (ln) [6],IC50 (ln) [7],IC50 (ln) [8],IC50 (ln) [9],IC50 (ln) [10],IC50 (ln) [11],IC50 (ln) [12],IC50 (ln) [13],IC50 (ln) [14],IC50 (ln) [15],IC50 (ln) [16],IC50 (ln) [17],IC50 (ln) [18],IC50 (ln) [19],IC50 (ln) [20],IC50 (ln) [21]
Cc1[nH]c2ccccc2c1CCNCc1ccc(/C=C/C(=O)NO)cc1 [Panobinostat],-0.934,-1.77,-1.39,-1.26,-1.97,-2.37,-2.16,-0.846,0.43,-2.37,-1.8,-2.65,-2,-0.667,0.481,-1.92,-1.23,-2.26,-0.0634,-1.01,-2.11
CO[C@H]1C[C@@H]2CC[C@@H](C)[C@@](O)(O2)C(=O)C(=O)N2CCCC[C@H]2C(=O)O[C@H]([C@H](C)C[C@@H]2CC[C@@H](O)[C@H](OC)C2)CC(=O)[C@H](C)/C=C(\C)[C@@H](O)[C@@H](OC)C(=O)[C@H](C)C[C@H](C)/C=C/C=C/C=C/1C [Rapamycin],-2.25,-1.89,-0.198,-2.97,-4.26,-3.35,-3.47,-0.663,-0.629,-2.12,-0.895,-2.82,-2.93,-2.47,-0.458,-2.71,-2.87,-2.68,-1.49,-1.41,-3.89
C/C=C1\NC(=O)[C@H]2CSSCC/C=C/[C@H](CC(=O)N[C@H](C(C)C)C(=O)N2)OC(=O)[C@H](C(C)C)NC1=O [Romidepsin],-4.05,-5.04,-4.27,-3.85,-3.64,-4.74,-4.55,-3.12,-3.68,-5.62,-4.87,-5.72,-5.03,-4.02,-3.74,-5.24,-4.88,-5.8,-2.03,-4.13,-5.44
CCc1c2c(nc3ccc(O)cc13)-c1cc3c(c(=O)n1C2)COC(=O)[C@]3(O)CC [SN-38],-1.02,-3.32,-3.53,-2.3,-5.1,-5.13,-2.97,-2.9,-0.268,-2.86,-5.93,-3.75,-4.81,-0.854,-1.9,-1.5,-5.53,-4.49,-4.28,-5,-3.86
COCC[n+]1c2c(n(Cc3cnccn3)c1C)C(=O)c1ccccc1C2=O [Sepantronium bromide],-2.2,-4.45,-3.91,-2.96,-5.54,-5.9,-6.01,-4.17,-6.15,-6.01,-6.78,-2.05,-4.09,-6.45,-1.33,-3.53,-5.94,-5.11,-4.35,-3.1,-4.12
CN[C@@H]1C[C@H]2O[C@@](C)([C@@H]1OC)n1c3ccccc3c3c4c(c5c6ccccc6n2c5c31)C(=O)NC4 [Staurosporine],-2.87,-2.55,-2.53,-2.23,-4.45,-4.38,-3.75,-1.61,-1.81,-3.62,-1.77,-4.99,-4.74,-1.49,-2.54,-3.13,-3.4,-5.03,-2.01,-2.94,-4.98
CN(C)C/C=C/C(=O)Nc1ccc(C(=O)Nc2cccc(Nc3ncc(Cl)c(-c4c[nH]c5ccccc45)n3)c2)cc1 [THZ1],-1.1,-1.93,-2.18,-2.48,-2.58,-1.93,-2.4,-1.3,-0.456,-2.1,-1.01,-2.72,-2.18,-0.297,-1.28,-2.66,-2.07,-2.01,-0.322,-1.9,-2.27
CC[C@@]1(O)C(=O)OCc2c1cc1n(c2=O)Cc2cc3c(CN(C)C)c(O)ccc3nc2-1 [Topotecan],-0.563,-1.36,-0.991,-0.561,-2.24,-1.86,-0.763,-0.416,1.79,-0.589,-2.78,-1.82,-2.17,1.32,-0.116,-0.253,-2.93,-1.49,-1.66,-1.8,-1.41
CC[C@]1(O)C[C@@H]2CN(CCc3c([nH]c4ccccc34)[C@@](C(=O)OC)(c3cc4c(cc3OC)N(C)[C@H]3[C@@](O)(C(=O)OC)[C@H](OC(C)=O)[C@]5(CC)C=CCN6CC[C@]43[C@@H]65)C2)C1 [Vinblastine],-5.52,-7.11,-6,-3.12,-5.86,-6.16,-5.51,-2.73,-1.75,-4.28,-2.06,-5.26,-4.52,-0.44,-3.39,0.0626,-5.8,-5.08,0.489,-1.25,-3.94
CCC1=C[C@@H]2CN(C1)Cc1c([nH]c3ccccc13)[C@@](C(=O)OC)(c1cc3c(cc1OC)N(C)[C@H]1[C@@](O)(C(=O)OC)[C@H](OC(C)=O)[C@]4(CC)C=CCN5CC[C@]31[C@@H]54)C2 [Vinorelbine],-3.91,-4.87,-4.43,-3.19,-3.96,-4.86,-4.75,-2.05,-2.4,-4.11,-1.52,-3.98,-4.3,-0.871,-3.17,-2.27,-4.57,-4.32,-1.06,-2.86,-4
CC[C@@H]1C(=O)N(C)c2cnc(Nc3ccc(C(=O)N[C@H]4CC[C@H](N5CCN(CC6CC6)CC5)CC4)cc3OC)nc2N1C(C)C [Volasertib],-2.43,-3.61,-2.84,-1.33,-1.65,-2.9,-2.61,0.264,-0.541,-1.36,-0.561,-2.71,-2.92,2.12,-2.17,-1.37,-2.15,-2.22,-0.173,-0.0575,-2.1
